PubChem BioAssay AID2060501 (Molecular Pharmacology Branch, DTP, NCI, 2025)

System: 282377-053-R-J1-PDC complex spheroids, viability
Test: Anticancer human tumor 282377-053-R-J1-PDC patient-derived colon adenocarcinoma cell line growth inhibition [GQUAD]
Conditions: for IC50: curve of first compound; for viability, T/C: stronger effect = lower value; active = viability on the fitted dose curve at most 10% of control; inactive = the rest
Summary of the method: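 Viability of tumor cells grown as complex spheroids with endothelial and stromal cells, exposed to drug combinations. Top concentration at or near clinical Cmax (else 10 microM), diluted in half-log increments.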

[1] = second compound 0.0316 µM, first compound 0.0316 µM
[2] = second compound 0.0316 µM, first compound 0.1 µM
[3] = second compound 0.0316 µM, first compound 0.316 µM
[4] = second compound 0.0316 µM, first compound 1 µM
[5] = second compound 0.0316 µM, first compound 3.16 µM
[6] = second compound 0.0316 µM, first compound 10 µM
[7] = second compound 0.1 µM, first compound 0.0316 µM
[8] = second compound 0.1 µM, first compound 0.1 µM
[9] = second compound 0.1 µM, first compound 0.316 µM
[10] = second compound 0.1 µM, first compound 1 µM
[11] = second compound 0.1 µM, first compound 3.16 µM
[12] = second compound 0.1 µM, first compound 10 µM
[13] = second compound 0.316 µM, first compound 0.0316 µM
[14] = second compound 0.316 µM, first compound 0.1 µM
[15] = second compound 0.316 µM, first compound 0.316 µM
[16] = second compound 0.316 µM, first compound 1 µM
[17] = second compound 0.316 µM, first compound 3.16 µM
[18] = second compound 0.316 µM, first compound 10 µM
[19] = second compound 1 µM, first compound 0.0316 µM
[20] = second compound 1 µM, first compound 0.1 µM
[21] = second compound 1 µM, first compound 0.316 µM
[22] = second compound 1 µM, first compound 1 µM
[23] = second compound 1 µM, first compound 3.16 µM
[24] = second compound 1 µM, first compound 10 µM
[25] = second compound 3.16 µM, first compound 0.0316 µM
[26] = second compound 3.16 µM, first compound 0.1 µM
[27] = second compound 3.16 µM, first compound 0.316 µM
[28] = second compound 3.16 µM, first compound 1 µM
[29] = second compound 3.16 µM, first compound 3.16 µM
[30] = second compound 3.16 µM, first compound 10 µM
[31] = second compound 10 µM, first compound 0.0316 µM
[32] = second compound 10 µM, first compound 0.1 µM
[33] = second compound 10 µM, first compound 0.316 µM
[34] = second compound 10 µM, first compound 1 µM
[35] = second compound 10 µM, first compound 3.16 µM
[36] = second compound 10 µM, first compound 10 µM
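Also: spheroids exposed to compounds for 7 days before readout.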
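For viability, T/C in this document: percent of vehicle DMSO control viability with 100% = untreated-like growth.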

CCCS(=O)(=O)Nc1ccc(F)c(C(=O)c2c[nH]c3ncc(-c4ccc(Cl)cc4)cc23)c1F + Cc1[nH]c2ccc(F)cc2c1-c1nc2c3cccnc3c3ncccc3c2[nH]1
2040 nM: IC50 (second compound 1 µM)
2130 nM: IC50 (second compound 0.1 µM)
< 31.6 nM: IC50 (second compound 10 µM)
2150 nM: IC50 (second compound 0.316 µM)
active: viability, T/C [30] 6.19% | viability, T/C [36] 4.48%
inactive: viability, T/C [1] 95.9% | viability, T/C [2] 90.4% | viability, T/C [3] 95.1% | viability, T/C [4] 92.5% | viability, T/C [5] 30.9% | viability, T/C [6] 14.5% | viability, T/C [7] 130% | viability, T/C [8] 114% | viability, T/C [9] 89% | viability, T/C [10] 81.2% | viability, T/C [11] 31.7% | viability, T/C [12] 13.2% | viability, T/C [13] 96.4% | viability, T/C [14] 83.7% | viability, T/C [15] 81.8% | viability, T/C [16] 91.4% | viability, T/C [17] 30.5% | viability, T/C [18] 16.1% | viability, T/C [19] 108% | viability, T/C [20] 120% | viability, T/C [21] 74.3% | viability, T/C [22] 93.2% | viability, T/C [23] 23.9% | viability, T/C [24] 11.8% | viability, T/C [25] 89.2% | viability, T/C [26] 66.7% | viability, T/C [27] 71.9% | viability, T/C [28] 45.3% | viability, T/C [29] 9.06% | viability, T/C [31] 33.6% | viability, T/C [32] 31.9% | viability, T/C [33] 23.1% | viability, T/C [34] 22.8% | viability, T/C [35] 3.93%
2210 nM: IC50 (second compound 0.0316 µM)
781 nM: IC50 (second compound 3.16 µM)

COc1ncnc(C2CC2)c1-c1ncc2cnn(Cc3ccc(-c4nc(C(F)(F)F)cn4C(C)C)cc3)c2n1 + Cc1[nH]c2ccc(F)cc2c1-c1nc2c3cccnc3c3ncccc3c2[nH]1
active: viability, T/C [6] 5.07% | viability, T/C [12] 7.94% | viability, T/C [24] 6.2% | viability, T/C [30] 6.71% | viability, T/C [36] 5.55%
5900 nM: IC50 (second compound 0.316 µM)
5930 nM: IC50 (second compound 0.1 µM)
4130 nM: IC50 (second compound 3.16 µM)
5460 nM: IC50 (second compound 1 µM)
3360 nM: IC50 (second compound 10 µM)
inactive: viability, T/C [1] 97.6% | viability, T/C [2] 103% | viability, T/C [3] 91.9% | viability, T/C [4] 99.4% | viability, T/C [5] 97.1% | viability, T/C [7] 88.5% | viability, T/C [8] 107% | viability, T/C [9] 114% | viability, T/C [10] 110% | viability, T/C [11] 101% | viability, T/C [13] 103% | viability, T/C [14] 88.3% | viability, T/C [15] 111% | viability, T/C [16] 117% | viability, T/C [17] 96.3% | viability, T/C [18] 10.5% | viability, T/C [19] 97.1% | viability, T/C [20] 97.2% | viability, T/C [21] 113% | viability, T/C [22] 115% | viability, T/C [23] 89.5% | viability, T/C [25] 85.5% | viability, T/C [26] 79.5% | viability, T/C [27] 93.2% | viability, T/C [28] 82.6% | viability, T/C [29] 63.2% | viability, T/C [31] 48.1% | viability, T/C [32] 30.1% | viability, T/C [33] 76.9% | viability, T/C [34] 54.2% | viability, T/C [35] 53.4%
5700 nM: IC50 (second compound 0.0316 µM)

Cc1[nH]c2ccccc2c1CCNCc1ccc(/C=C/C(=O)NO)cc1 + Cc1[nH]c2ccc(F)cc2c1-c1nc2c3cccnc3c3ncccc3c2[nH]1
> 316 nM: IC50 (second compound 0.0316 µM) | IC50 (second compound 0.1 µM) | IC50 (second compound 0.316 µM) | IC50 (second compound 1 µM)
< 0.999 nM: IC50 (second compound 10 µM)
inactive: viability, T/C (second compound 0.0316 µM, first compound 0.000999 µM) 87.8% | viability, T/C (second compound 0.0316 µM, first compound 0.00316 µM) 100% | viability, T/C (second compound 0.0316 µM, first compound 0.00999 µM) 105% | viability, T/C [1] 90.3% | viability, T/C (second compound 0.0316 µM, first compound 0.0999 µM) 93% | viability, T/C [3] 96.8% | viability, T/C (second compound 0.1 µM, first compound 0.000999 µM) 97.4% | viability, T/C (second compound 0.1 µM, first compound 0.00316 µM) 98.9% | viability, T/C (second compound 0.1 µM, first compound 0.00999 µM) 79.9% | viability, T/C [7] 89.9% | viability, T/C (second compound 0.1 µM, first compound 0.0999 µM) 74.6% | viability, T/C [9] 70.7% | viability, T/C (second compound 0.316 µM, first compound 0.000999 µM) 102% | viability, T/C (second compound 0.316 µM, first compound 0.00316 µM) 106% | viability, T/C (second compound 0.316 µM, first compound 0.00999 µM) 74.6% | viability, T/C [13] 97.4% | viability, T/C (second compound 0.316 µM, first compound 0.0999 µM) 97.8% | viability, T/C [15] 96.1% | viability, T/C (second compound 1 µM, first compound 0.000999 µM) 116% | viability, T/C (second compound 1 µM, first compound 0.00316 µM) 95.8% | viability, T/C (second compound 1 µM, first compound 0.00999 µM) 93.8% | viability, T/C [19] 101% | viability, T/C (second compound 1 µM, first compound 0.0999 µM) 87.9% | viability, T/C [21] 88.1% | viability, T/C (second compound 3.16 µM, first compound 0.000999 µM) 70.8% | viability, T/C (second compound 3.16 µM, first compound 0.00316 µM) 75.7% | viability, T/C (second compound 3.16 µM, first compound 0.00999 µM) 60.9% | viability, T/C [25] 66.2% | viability, T/C (second compound 3.16 µM, first compound 0.0999 µM) 67.1% | viability, T/C [27] 38.1% | viability, T/C (second compound 10 µM, first compound 0.000999 µM) 32.5% | viability, T/C (second compound 10 µM, first compound 0.00316 µM) 33.9% | viability, T/C (second compound 10 µM, first compound 0.00999 µM) 52.2% | viability, T/C [31] 34.4% | viability, T/C (second compound 10 µM, first compound 0.0999 µM) 22.3% | viability, T/C [33] 25.2%
196 nM: IC50 (second compound 3.16 µM)

COc1ccc([C@@H](O)c2cc(-c3ncnc4cc(N5CCOCC5)ccc34)c(F)cc2Cl)nn1 + Cc1cnc(CNC(=O)c2c(=O)c3ccc(N4CCCN(C)CC4)nc3n3c2sc2ccccc23)cn1
328 nM: IC50 (second compound 1 µM)
< 31.6 nM: IC50 (second compound 10 µM)
3510 nM: IC50 (second compound 0.316 µM)
77.8 nM: IC50 (second compound 3.16 µM)
> 10000 nM: IC50 (second compound 0.0316 µM)
8310 nM: IC50 (second compound 0.1 µM)
inactive: viability, T/C [1] 97% | viability, T/C [2] 82.7% | viability, T/C [3] 118% | viability, T/C [4] 78.1% | viability, T/C [5] 73.6% | viability, T/C [6] 72% | viability, T/C [7] 117% | viability, T/C [8] 113% | viability, T/C [9] 93.8% | viability, T/C [10] 77.3% | viability, T/C [11] 66% | viability, T/C [12] 46.4% | viability, T/C [13] 79.2% | viability, T/C [14] 84.8% | viability, T/C [15] 69.9% | viability, T/C [16] 66.3% | viability, T/C [17] 51.2% | viability, T/C [18] 36.5% | viability, T/C [19] 61.1% | viability, T/C [20] 52% | viability, T/C [21] 55.5% | viability, T/C [22] 42% | viability, T/C [23] 41.3% | viability, T/C [24] 37.3% | viability, T/C [25] 56.3% | viability, T/C [26] 48.2% | viability, T/C [27] 43.3% | viability, T/C [28] 42.9% | viability, T/C [29] 41.5% | viability, T/C [30] 39.2% | viability, T/C [31] 47% | viability, T/C [32] 45.3% | viability, T/C [33] 44.5% | viability, T/C [34] 39.9% | viability, T/C [35] 35.5% | viability, T/C [36] 30.8%
